Test [1] deals with phosphorylation of SR proteins. Put plainly: Western blot of nuclear extracts, phosphor-SR proteins. As to conditions: HCT116 and Rh18 cells, 4 h; SD6 10 μM, compound 1 10 μM, compound 2 5 μM, compound 3 10 μM. On the technique in general: A western blot detects proteins with antibodies after separation by electrophoresis.
Experimental: HCT116 cells were seeded at 3 million cells per 100 mm culture plate. The next day cells were treated with 5 μM or 10 μM of each compound for 4h and 8h. […] The pellet was snap frozen on dry ice and then thawed and spun at 12K rpm for 5 min, 4C. The supernatant was collected (nuclear extract) and protein concentrations determined using BCA Protein Assay Kit. […] The proteins were transferred to PVDF membrane using a wet transfer system. […] After the secondary antibody incubation, membranes were washed 4X with PBS containing 0.1% Tween-20 and 1X with PBS before imaging using the Li-Cor Odyssey imaging system.
Lanes 6 to 10 are nuclear extracts from Rh18 cells.
The next test deals with T1, SRPK1(h) (Homo sapiens, UniProt Q96SB4).
T1 construct: purchased Eurofins, Dundee, Scotland
Nature of the test: Radiometric protein kinase assay (Eurofins). Type of test: biochemical. As to conditions: ATP 10 μM. The method, then: (§1) Enzymatic biochemical activities were evaluated in radiometric protein kinase assays (Eurofins, Dundee, Scotland). Kinases are incubated with buffer, substrate and [γ-^33P]-ATP (specific activity approx. 500 cpm/pmol, concentration as required). The reaction is initiated by the addition of the MgATP mix. After incubation for 40 minutes at room temperature, the reaction is stopped by the addition of 3% phosphoric acid solution. 10 μL of the reaction is then spotted onto a P30 filtermat and washed three times for 5 minutes in 75 mM phosphoric acid and once in methanol prior to drying and scintillation counting. All compounds are prepared to 50x final assay concentration in 100% DMSO. Positive control wells contain all components of the reaction with 2% DMSO. Blank wells contain all components of the reaction, with a reference inhibitor replacing the compound of interest. Each kinase is assigned a standard assay concentration of ATP within 20 μM of its apparent Km. Compounds were screened at 1 μM in duplicate or tested at 10 concentrations at half log dilution starting from 10 μM in singlicate. Dose response curves were fitted with four parameter logistic curve to obtain IC50 values. […]
(§2) Staurosporine is used as reference for all tested enzymes except for SRPK3 (reference inhibitor: K-252a. Nocardiopsis sp), NEK2 (reference inhibitor: […]), and CK2, CK2α2, MAPK1, MAPK2 (reference inhibitor: PKR Inhibitor). See Table 1 below for additional details.

A further test has as its target T2, AKT3 (Homo sapiens, UniProt Q9Y243).
T2 construct: purchased Eurofins, Dundee, Scotland
Put plainly: Radiometric protein kinase assay (Eurofins). Type of test: biochemical. As to conditions: ATP 45 μM. The protocol:
as §1, §2

In the next test the target is T3, DYRK1B (h) (Homo sapiens, UniProt Q9Y463).
T3 construct: purchased Eurofins, Dundee, Scotland
Put plainly: Radiometric protein kinase assay (Eurofins). Type of test: biochemical. As to conditions: ATP 45 μM. The protocol: as §1, §2

The next test deals with T4, CLK4(h) (Homo sapiens, UniProt Q9HAZ1).
T4 construct: purchased Eurofins, Dundee, Scotland
Nature of the test: Radiometric protein kinase assay (Eurofins). Type of test: biochemical. As to conditions: ATP 10 μM. The protocol:
as §1, §2

In another test the target is T5, SRPK2 (h) (Homo sapiens, UniProt P78362).
T5 construct: purchased Eurofins, Dundee, Scotland
Put plainly: Radiometric protein kinase assay (Eurofins). Type of test: biochemical. The settings on record: 40 min; ATP 10 μM; read-out: SRPK2 IC50. The method, then:
as §1, §2

The target of a further test is T6, GSK3α(h) (Homo sapiens, UniProt P49840).
T6 construct: purchased Eurofins, Dundee, Scotland
Nature of the test: Radiometric protein kinase assay (Eurofins). Type of test: biochemical. As to conditions: 40 min; ATP 10 μM; read-out: GSK3α(h) IC50. The method, then: as §1, §2

The target of the next test is T7, CLK1(h) (Homo sapiens, UniProt P49759).
T7 construct: purchased Eurofins, Dundee, Scotland
Put plainly: Radiometric protein kinase assay (Eurofins). As to conditions: ATP 10 μM. Type of test: biochemical. The protocol:
as §1, §2

A further test deals with T8, MAPK2 (h) (Homo sapiens, UniProt P28482).
T8 construct: purchased Eurofins, Dundee, Scotland
Put plainly: Radiometric protein kinase assay (Eurofins). Type of test: biochemical. As to conditions: 40 min; ATP 155 μM; read-out: MAPK2 IC50. The protocol:
as §1, §2

The next test deals with T9, CLK3(h) (Homo sapiens, UniProt P49761).
T9 construct: purchased Eurofins, Dundee, Scotland
Put plainly: Radiometric protein kinase assay (Eurofins). The settings on record: ATP 90 μM. Type of test: biochemical. The method, then:
as §1, §2

The target of the next test is T10, MAPK1 (h) (Homo sapiens, UniProt P27361).
T10 construct: purchased Eurofins, Dundee, Scotland
Put plainly: Radiometric protein kinase assay (Eurofins). The settings on record: 40 min; read-out: MAPK1 IC50. Type of test: biochemical. The method, then: as §1, §2

For the next test, the target named is T11, CK2α2 (h) (Homo sapiens, UniProt P19784).
T11 construct: purchased Eurofins, Dundee, Scotland
Nature of the test: Radiometric protein kinase assay (Eurofins). Type of test: biochemical. As to conditions: 40 min; ATP 10 μM; read-out: CK2a2 IC50. The protocol:
as §1, §2

The target of the next test is T12, DYRK2 (h) (Homo sapiens, UniProt Q92630).
T12 construct: purchased Eurofins, Dundee, Scotland
T12 sequence (Q92630 1-601): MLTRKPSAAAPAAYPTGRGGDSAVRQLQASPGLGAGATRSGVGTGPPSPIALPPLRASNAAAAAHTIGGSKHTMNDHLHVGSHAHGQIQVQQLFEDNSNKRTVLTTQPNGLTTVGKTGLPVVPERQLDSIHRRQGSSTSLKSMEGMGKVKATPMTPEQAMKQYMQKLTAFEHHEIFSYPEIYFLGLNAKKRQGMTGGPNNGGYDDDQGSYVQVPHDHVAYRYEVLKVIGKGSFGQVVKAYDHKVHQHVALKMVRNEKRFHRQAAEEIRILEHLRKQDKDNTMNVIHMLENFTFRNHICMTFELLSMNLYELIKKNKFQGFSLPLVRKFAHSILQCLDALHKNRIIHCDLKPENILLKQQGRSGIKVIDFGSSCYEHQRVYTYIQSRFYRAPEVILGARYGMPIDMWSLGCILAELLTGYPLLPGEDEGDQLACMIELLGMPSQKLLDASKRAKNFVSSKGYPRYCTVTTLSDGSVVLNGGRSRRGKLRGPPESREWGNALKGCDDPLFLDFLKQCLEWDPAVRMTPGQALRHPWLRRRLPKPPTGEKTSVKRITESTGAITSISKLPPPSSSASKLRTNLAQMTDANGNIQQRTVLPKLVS
Nature of the test: Radiometric protein kinase assay (Eurofins). Type of test: biochemical. The settings on record: ATP 15 μM. The protocol: as §1, §2

Another test concerns the target T13, SF3B1 (Homo sapiens, UniProt O75533+Q7RTV0).
T13 construct: endogenous in cells
Put plainly: Competitive antagonist assay (TESLR in the presence of SD6 or hit compound). Type of test: cell-based. The settings on record: 6 μM compound for one hour, then serial dilutions of sudemycinol C for another 4 hours. The method, then:
SK-MEL-2/Luc-MDM2 stable cells were plated at a density of 20,000 cells/well in 96-well plates and incubated overnight at 37°C in 5% CO2.[27, 28] The following day, cells were treated with 14 analogs using serial dilution for one hour. The list of compounds screened as potential TESLR antagonists are show in SI file. After one-hour pre-treatment, 4 μM of SD6 were added to the pre-treated cells for another 4 hours. Either 0.5% DMSO or serial dilutions of SD6 were used to treat cells for 4 hours as controls. At the end of incubation time, ONE-Glo™ EX reagents (Promega) were added to measure the luciferase activity. […]
Fig 6 Competitive antagonist assay. (Left Panel) The assay that identified two antagonists of SD6 activity in the TESLR screen, which are useful for the determination of SF3B1 binding. Relative luminescent units were plotted against corresponding drug concentrations and fitted with a standard four parameter sigmoidal curve with GraphPad Prism. (Right Panel) The structures of the antagonists and SD6. See SI for chemistry details.
. SK-MEL-2/Luc-MDM2 stable cells were plated at a density of 20000/well in 96-well plates and incubated overnight at 37°C in 5% CO2. […]. After one-hour pre-treatment, serial dilutions of the sudemycinol C were added to the pre-treated cells for another 4 hours. […]. At the end of incubation time, ONE-Glo™ EX reagents (Promega) were added to measure the luciferase activity. […]. DR: dose response.

Structures are written as SMILES.

T9 sequence (P49761 whole entry): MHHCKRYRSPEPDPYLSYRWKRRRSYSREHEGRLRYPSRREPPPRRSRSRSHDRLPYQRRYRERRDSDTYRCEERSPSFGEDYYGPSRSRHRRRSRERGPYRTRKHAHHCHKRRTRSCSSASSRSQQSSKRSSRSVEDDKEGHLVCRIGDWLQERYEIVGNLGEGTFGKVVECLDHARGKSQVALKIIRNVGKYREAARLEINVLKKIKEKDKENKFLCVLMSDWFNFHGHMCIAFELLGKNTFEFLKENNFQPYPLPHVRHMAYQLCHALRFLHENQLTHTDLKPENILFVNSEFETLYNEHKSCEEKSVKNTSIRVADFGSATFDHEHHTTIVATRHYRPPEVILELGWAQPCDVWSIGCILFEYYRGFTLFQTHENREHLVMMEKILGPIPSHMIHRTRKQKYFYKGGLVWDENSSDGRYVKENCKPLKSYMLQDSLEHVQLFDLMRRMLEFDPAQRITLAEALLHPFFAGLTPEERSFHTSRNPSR
T4 sequence (Q9HAZ1 whole entry): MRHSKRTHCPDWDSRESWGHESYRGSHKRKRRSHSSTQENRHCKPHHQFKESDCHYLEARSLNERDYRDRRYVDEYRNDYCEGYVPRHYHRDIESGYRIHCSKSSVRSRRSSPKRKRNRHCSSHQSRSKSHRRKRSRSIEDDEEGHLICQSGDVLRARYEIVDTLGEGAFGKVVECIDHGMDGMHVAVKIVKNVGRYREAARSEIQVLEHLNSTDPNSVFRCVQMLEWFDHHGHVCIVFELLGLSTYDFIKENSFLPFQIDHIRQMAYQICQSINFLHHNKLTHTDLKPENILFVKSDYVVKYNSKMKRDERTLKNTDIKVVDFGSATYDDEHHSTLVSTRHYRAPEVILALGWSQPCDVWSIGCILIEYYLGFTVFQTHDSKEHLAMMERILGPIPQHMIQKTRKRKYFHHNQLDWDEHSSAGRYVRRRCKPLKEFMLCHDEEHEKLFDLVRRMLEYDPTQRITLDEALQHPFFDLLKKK
T6 sequence (P49840 whole entry): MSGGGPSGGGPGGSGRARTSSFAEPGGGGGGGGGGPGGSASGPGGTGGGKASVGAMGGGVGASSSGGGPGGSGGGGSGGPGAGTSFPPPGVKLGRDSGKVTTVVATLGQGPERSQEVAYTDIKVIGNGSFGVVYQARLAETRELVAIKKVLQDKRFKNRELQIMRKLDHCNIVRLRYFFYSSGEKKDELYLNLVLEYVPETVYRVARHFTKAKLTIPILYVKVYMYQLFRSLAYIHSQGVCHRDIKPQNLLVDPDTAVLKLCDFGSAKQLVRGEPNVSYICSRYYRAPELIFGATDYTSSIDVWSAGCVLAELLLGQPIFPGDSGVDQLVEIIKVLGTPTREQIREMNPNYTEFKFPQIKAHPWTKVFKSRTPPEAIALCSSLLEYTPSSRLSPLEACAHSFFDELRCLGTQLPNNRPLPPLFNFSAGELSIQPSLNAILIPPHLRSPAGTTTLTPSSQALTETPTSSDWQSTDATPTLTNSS
T7 sequence (P49759 whole entry): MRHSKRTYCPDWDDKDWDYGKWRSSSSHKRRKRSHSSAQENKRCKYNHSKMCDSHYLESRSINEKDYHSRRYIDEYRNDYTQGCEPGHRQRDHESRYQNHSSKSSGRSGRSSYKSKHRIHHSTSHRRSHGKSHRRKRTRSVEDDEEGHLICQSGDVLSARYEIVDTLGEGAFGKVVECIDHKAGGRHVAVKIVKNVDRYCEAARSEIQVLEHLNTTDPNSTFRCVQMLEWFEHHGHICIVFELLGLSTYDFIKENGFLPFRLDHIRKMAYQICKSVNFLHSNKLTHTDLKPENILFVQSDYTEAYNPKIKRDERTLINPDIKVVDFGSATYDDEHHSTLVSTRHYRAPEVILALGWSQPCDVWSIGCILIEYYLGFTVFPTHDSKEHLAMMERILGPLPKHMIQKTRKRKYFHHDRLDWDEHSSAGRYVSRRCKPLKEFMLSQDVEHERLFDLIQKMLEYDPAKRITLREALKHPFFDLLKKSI
T8 sequence (P28482 whole entry): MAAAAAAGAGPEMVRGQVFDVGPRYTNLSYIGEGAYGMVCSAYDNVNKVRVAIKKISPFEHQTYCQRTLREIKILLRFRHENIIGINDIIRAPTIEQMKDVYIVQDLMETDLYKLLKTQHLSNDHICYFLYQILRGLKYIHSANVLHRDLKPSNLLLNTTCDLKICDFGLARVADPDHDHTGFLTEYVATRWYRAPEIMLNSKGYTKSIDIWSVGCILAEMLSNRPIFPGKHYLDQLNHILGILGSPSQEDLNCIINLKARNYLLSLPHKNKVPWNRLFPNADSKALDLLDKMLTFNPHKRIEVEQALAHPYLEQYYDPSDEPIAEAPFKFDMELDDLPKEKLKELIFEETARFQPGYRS
T3 sequence (Q9Y463 whole entry): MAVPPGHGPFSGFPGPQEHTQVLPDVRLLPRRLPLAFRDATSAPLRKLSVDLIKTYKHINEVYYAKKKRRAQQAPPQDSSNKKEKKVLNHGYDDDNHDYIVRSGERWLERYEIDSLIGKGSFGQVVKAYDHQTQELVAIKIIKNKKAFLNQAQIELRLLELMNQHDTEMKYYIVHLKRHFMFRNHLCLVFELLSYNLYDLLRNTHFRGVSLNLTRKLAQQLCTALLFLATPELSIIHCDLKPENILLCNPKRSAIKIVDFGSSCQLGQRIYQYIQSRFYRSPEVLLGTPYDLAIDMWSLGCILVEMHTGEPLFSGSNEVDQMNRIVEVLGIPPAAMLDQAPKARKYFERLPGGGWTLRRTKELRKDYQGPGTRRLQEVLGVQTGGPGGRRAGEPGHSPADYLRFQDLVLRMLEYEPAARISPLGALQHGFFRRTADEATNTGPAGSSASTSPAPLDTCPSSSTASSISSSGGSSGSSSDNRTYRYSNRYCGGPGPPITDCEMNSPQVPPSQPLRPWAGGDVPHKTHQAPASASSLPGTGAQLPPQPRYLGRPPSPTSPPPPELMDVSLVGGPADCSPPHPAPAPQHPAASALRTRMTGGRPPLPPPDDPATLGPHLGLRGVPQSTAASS
T11 sequence (P19784 whole entry): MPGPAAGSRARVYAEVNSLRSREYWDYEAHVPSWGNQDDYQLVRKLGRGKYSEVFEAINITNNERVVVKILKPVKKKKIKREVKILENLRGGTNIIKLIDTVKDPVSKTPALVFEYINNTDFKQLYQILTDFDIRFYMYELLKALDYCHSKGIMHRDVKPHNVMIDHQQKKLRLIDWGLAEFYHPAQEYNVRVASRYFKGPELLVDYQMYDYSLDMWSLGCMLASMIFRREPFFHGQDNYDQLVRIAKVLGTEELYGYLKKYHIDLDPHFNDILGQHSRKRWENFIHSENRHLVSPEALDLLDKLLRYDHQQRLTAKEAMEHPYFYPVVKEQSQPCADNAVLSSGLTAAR
T2 sequence (Q9Y243 whole entry): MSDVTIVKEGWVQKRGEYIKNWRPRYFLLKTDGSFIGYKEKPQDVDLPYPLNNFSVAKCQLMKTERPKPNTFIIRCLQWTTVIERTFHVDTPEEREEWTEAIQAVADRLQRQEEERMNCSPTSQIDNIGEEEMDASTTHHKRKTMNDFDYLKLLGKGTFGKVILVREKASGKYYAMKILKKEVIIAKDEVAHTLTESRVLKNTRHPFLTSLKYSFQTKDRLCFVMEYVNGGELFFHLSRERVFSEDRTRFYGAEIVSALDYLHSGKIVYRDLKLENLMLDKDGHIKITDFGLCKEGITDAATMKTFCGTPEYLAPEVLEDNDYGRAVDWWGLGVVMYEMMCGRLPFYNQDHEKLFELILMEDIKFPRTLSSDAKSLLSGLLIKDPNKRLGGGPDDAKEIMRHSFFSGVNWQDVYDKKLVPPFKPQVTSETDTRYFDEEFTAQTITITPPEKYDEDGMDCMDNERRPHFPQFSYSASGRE
T10 sequence (P27361 whole entry): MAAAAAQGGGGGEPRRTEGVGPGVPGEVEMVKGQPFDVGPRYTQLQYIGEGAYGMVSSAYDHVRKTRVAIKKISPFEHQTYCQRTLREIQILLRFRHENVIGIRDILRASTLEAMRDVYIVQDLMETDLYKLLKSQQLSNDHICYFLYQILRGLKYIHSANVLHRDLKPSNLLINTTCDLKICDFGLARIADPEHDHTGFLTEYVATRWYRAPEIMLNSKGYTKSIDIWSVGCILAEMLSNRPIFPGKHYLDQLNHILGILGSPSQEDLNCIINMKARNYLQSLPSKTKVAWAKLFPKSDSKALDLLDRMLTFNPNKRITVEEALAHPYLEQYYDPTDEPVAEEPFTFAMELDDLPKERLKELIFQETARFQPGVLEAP
T5 sequence (P78362 whole entry): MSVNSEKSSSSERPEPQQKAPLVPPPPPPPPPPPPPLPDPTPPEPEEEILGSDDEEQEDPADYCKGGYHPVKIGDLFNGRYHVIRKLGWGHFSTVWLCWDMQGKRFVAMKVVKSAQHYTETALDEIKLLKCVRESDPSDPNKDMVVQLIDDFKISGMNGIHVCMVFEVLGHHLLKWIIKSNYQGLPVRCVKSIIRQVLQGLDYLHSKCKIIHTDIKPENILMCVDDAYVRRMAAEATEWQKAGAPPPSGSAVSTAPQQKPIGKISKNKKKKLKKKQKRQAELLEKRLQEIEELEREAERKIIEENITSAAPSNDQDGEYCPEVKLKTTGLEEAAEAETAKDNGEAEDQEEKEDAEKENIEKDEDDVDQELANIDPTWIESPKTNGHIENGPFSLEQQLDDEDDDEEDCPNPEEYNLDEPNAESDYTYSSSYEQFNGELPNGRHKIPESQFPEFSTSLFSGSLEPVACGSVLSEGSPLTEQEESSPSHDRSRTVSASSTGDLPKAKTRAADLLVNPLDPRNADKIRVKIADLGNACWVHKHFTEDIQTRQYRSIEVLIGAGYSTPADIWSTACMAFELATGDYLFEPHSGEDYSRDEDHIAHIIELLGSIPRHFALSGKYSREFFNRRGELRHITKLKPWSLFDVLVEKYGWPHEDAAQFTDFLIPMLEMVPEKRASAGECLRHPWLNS

As usually defined, the IC50 is the concentration needed to halve the response being measured. A low value points to higher potency. As for `CNC(=O)c1nn(C)c2c1C(C)(C)Cc1cnc(Nc3ccc(N4CCN(C)CC4)cc3)nc1-2` [Compound 1, milciclib], the “Effect on phosphorylation of SR proteins (immunoblot)” value in [1] is “reduced phosphorylation of both SR and SF3B1 proteins significantly”. Moreover, the inhibition at 1 µM on SRPK1(h) (40 min, read-out: SRPK1 IC50) is under 50%; on AKT3 (40 min, read-out: AKT3 IC50), under 50%; at SRPK2 (h), under 50%; on GSK3α(h), under 50%; on MAPK2 (h), under 50%; at MAPK1 (h), under 50%. Moreover, the inhibition at 1 µM on CK2α2 (h) is under 50%. Further, the IC50 worked out at 5 nM on DYRK1B (h); 13 nM against CLK4(h); 3 nM against CLK1(h); 425 nM against CLK3(h); 48 nM on DYRK2 (h). For the same molecule, at SF3B1, the “Antagonism of the compound's TESLR activity by sudemycinol C” value is on record as “did not antagonize”.
For `Cc1nc(Nc2[nH]nc3c2CN(C(=O)N[C@H](CN(C)C)c2ccccc2)C3(C)C)c2sccc2n1` [Compound 2, PF-3758309], the “Effect on phosphorylation of SR proteins (immunoblot)” value in test [1] was “reduced phosphorylation of both SR and SF3B1 proteins significantly”. Moreover, the IC50 against SRPK1(h) came out at 170 nM; on AKT3, 54 nM; against CLK4(h), 48 nM; on CLK1(h) it was 27 nM; on CLK3(h), 485 nM. The inhibition at 1 µM on DYRK1B (h) (40 min, read-out: DYRK1B IC50) is under 50%; on SRPK2 (h) it was under 50%; on GSK3α(h), under 50%; at MAPK2 (h) it was under 50%; at MAPK1 (h), under 50%; on CK2α2 (h) it was under 50%. Besides, the inhibition at 1 µM at DYRK2 (h) (40 min, read-out: DYRK2 IC50) is under 50%. Besides, the “Antagonism of the compound's TESLR activity by sudemycinol C” value on SF3B1 is reported as “did not antagonize”.

Values taken from publication PMC7259758 (PLoS ONE, 2020).
